According to article PMC13237142, “Proteome-wide quantification of inositol pyrophosphate-protein interactions” (Nature Communications, 2026):
Blank lines part the entries; values can stand above or below the compound they belong to.

How the values were obtained:
PMVK = target: T1, PMVK (Homo sapiens, UniProt Q15126); assay: Isothermal titration calorimetry with recombinant PMVK; format: binding; settings: ITC, 25 °C, 50 μM protein, 500 μM ligand, buffer pH 7.4 with 1 mM MgCl2; triplicate
T1 construct: 6xHis (N, cleaved yes); V5 (N, cleaved yes); made in house; host or cells: E. coli BL21 (DE3)
T1 sequence (Q15126 1-192): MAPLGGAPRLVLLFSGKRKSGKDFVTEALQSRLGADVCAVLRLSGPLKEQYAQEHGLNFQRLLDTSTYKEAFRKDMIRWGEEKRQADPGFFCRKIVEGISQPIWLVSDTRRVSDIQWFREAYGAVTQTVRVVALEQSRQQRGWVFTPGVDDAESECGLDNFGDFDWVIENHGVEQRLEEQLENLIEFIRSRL
Description: Protein stocks were subjected to buffer exchange using final buffer conditions: 25 mM HEPES, pH 7.4, 150 mM KCl, 1 mM MgCl2, 40 mM NaCl, 0.5 mM TCEP (ITC buffer). The exact protein concentration was determined by BCA assay and adjusted to 50 μM. […] ITC experiments were carried out at 25 °C in a MicroCal PEAQ-ITC calorimeter (Malvern Panalytical GmbH, Kassel, Germany), with ca. 50 μM protein in the cell and 500 μM ligand in the syringe. InsPs were titrated into the solution in nineteen 2 μL-steps. Spacing between injections was 150 s. The corresponding instrument software (MicroCal PEAQ-ITC Analysis) was used for baseline correction, peak integration, data fitting and determination of binding parameters. All experiments were carried out in triplicate.

PDAP1 = target: T2, PDAP1 (Homo sapiens, UniProt Q13442); assay: KDapp by affinity enrichment/TMT-MS; format: binding; settings: Mg^2+(cyto) HEK293T lysate; read-out: KD^app
T2 construct: endogenous in cells; host or cells: HEK293T cytosolic fraction
T2 sequence (Q13442 1-181): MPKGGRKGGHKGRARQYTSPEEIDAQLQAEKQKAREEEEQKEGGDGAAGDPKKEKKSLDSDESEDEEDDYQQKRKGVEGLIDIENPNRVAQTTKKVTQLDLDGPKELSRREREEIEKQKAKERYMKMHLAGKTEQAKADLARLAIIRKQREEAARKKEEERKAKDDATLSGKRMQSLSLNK
Description: (§1) Cells were lysed using two different lysis buffers (containing either 1 mM EDTA or containing 1 mM Mg^2+), and the lysates were separated into nuclear and cytosolic fractions to provide deeper proteome coverage (Supplementary Fig. 8). […] Following quick washing steps, the retained proteins were eluted with an excess of the corresponding free ligand. The samples were digested with trypsin, followed by 11-plex TMT isobaric labeling, subsequent sample pooling, and LC-MS/MS analysis. To ensure robustness of the datasets, the experiments were performed in biological triplicates, and only proteins fully quantified in at least two replicates were further analyzed. […] In addition, model validity was assessed by an F-test comparing the Hill-like fit to a null model, and only proteins with statistically significant fits (p ≤ 0.05) were considered. Furthermore, a cutoff of log2 fold-change ≥ 1 between the endpoints was applied (Supplementary Data 1).
(§2) Cells were washed twice with ice-cold 0.9 mM NaCl in H2O (10 mL), carefully scraped off, added to protein low-binding microcentrifuge tubes, and ice-cold PBS (1 mL) was added. The cells were pelleted for 2 min, 250 g at 4 °C, and the supernatant was removed. The pellet was washed twice with ice-cold PBS (1 mL), the supernatant was removed, and the pellet was kept on ice. […]

POLR2I = target: T3, POLR2I (Homo sapiens, UniProt P36954); assay: KDapp by affinity enrichment/TMT-MS; settings: binding curve, Supplementary Fig. 9
T3 construct: endogenous in cells; host or cells: HEK293T lysate fraction

PPIP5K2 = target: T4, PPIP5K2 (Homo sapiens, UniProt O43314); assay: KDapp by affinity enrichment/TMT-MS; format: binding; settings: in the presence of Mg^2+ ions, cytosolic dataset
T4 construct: endogenous in cells; host or cells: HEK293T cytosolic fraction (Mg2+)
T4 sequence (O43314 1-1243): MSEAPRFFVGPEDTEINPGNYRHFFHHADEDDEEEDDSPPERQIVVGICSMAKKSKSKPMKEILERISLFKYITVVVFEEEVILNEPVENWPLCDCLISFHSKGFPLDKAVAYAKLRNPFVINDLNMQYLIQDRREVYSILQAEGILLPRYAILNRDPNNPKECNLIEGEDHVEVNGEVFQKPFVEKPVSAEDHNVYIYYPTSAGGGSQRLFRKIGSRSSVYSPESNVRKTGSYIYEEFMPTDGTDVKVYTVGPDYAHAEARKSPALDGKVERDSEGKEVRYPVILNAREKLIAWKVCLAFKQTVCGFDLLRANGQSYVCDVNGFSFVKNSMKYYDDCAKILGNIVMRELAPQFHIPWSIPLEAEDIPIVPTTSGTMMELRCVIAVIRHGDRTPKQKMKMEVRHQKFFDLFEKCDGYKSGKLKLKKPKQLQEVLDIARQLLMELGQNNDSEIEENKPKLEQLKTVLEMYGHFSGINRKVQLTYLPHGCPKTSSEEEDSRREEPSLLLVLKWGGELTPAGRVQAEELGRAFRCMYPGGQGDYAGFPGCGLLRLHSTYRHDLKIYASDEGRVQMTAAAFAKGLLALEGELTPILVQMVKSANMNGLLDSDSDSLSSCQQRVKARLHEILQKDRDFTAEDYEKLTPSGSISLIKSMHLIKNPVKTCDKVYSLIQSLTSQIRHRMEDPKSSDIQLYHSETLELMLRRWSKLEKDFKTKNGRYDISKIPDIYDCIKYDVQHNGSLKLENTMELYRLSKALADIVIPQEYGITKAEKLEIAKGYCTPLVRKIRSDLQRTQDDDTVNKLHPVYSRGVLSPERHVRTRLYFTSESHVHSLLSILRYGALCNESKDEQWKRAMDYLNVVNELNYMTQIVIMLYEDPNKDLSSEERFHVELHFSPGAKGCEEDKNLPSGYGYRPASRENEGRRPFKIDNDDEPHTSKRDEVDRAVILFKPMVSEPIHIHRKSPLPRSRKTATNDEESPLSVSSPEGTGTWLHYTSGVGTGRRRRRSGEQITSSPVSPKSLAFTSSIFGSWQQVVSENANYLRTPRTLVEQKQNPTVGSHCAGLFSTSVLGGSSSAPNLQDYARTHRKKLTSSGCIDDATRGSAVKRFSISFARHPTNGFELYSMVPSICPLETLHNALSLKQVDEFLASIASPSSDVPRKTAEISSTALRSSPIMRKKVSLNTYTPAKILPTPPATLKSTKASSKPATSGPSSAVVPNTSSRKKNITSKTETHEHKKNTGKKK
Description: as §1, §2

MMTAG2 = target: T5, MMTAG2 (Homo sapiens, UniProt Q9BU76); assay: KDapp by affinity enrichment/TMT-MS; format: binding; settings: Mg^2+nucl HEK293T lysate; read-out: KD^app
T5 construct: endogenous in cells; host or cells: HEK293T nuclear fraction (Mg2+)
T5 sequence (Q9BU76 whole entry): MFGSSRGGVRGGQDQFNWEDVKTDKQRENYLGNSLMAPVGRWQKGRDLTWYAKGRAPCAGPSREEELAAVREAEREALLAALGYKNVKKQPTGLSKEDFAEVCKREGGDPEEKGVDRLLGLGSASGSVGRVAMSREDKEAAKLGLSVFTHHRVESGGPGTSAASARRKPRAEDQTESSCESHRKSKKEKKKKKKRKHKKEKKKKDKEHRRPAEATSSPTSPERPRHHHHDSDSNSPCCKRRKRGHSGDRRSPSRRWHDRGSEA
Description: as §1, §2

[1] = system: proteins of HEK293T cell lysates (cytosolic/nuclear, EDTA/Mg2+); assay: Proteome-wide KDapp, all four lysate preparations together; format: binding, human; settings: Mg^2+ ions present; read-out: KD^app values of the top 50 proteins
[2] = in the presence of Mg^2+ ions; cited from earlier work
XPR1 = settings: compared with InsP6 and 5PP-InsP5; cited from earlier work

Kd (PMVK): 9500 ± 1000 nM
Structure (SMILES): O=P(O)(O)O[C@H]1[C@@H](OP(=O)(O)O)[C@H](OP(=O)(O)O)[C@@H](OP(=O)(O)OP(=O)(O)O)[C@H](OP(=O)(O)O)[C@H]1OP(=O)(O)O [5PP-InsP5, 5-diphosphoinositol pentakisphosphate]

Kd (PDAP1): 600 nM
binding to POLR2I (POLR2I): strong binding
binding to PPIP5K2 (binding curves) (PPIP5K2): tight binding
Kd (MMTAG2): 1900 nM
Structure (SMILES): O=C(CCCC[C@@H]1SC[C@@H]2NC(=O)N[C@@H]21)NCCOCCOCCOCCOCCOP(=O)(O)O[C@@H]1[C@@H](OP(=O)(O)O)[C@H](OP(=O)(O)CP(=O)(O)O)[C@@H](OP(=O)(O)O)[C@H](OP(=O)(O)CP(=O)(O)O)[C@@H]1OP(=O)(O)O [b-1,5(PCP)2-InsP4]
Kd [1]: < 1000 nM

Kd (PMVK): 4000 ± 300 nM
Structure (SMILES): O=P(O)(O)O[C@H]1[C@H](OP(=O)(O)O)[C@@H](OP(=O)(O)O)[C@H](OP(=O)(O)O)[C@@H](OP(=O)(O)O)[C@H]1OP(=O)(O)O [InsP6, inositol hexakisphosphate]

Structure (SMILES): O=P(O)(O)O[C@@H]1[C@@H](OP(=O)(O)O)[C@H](OP(=O)(O)OP(=O)(O)O)[C@@H](OP(=O)(O)O)[C@H](OP(=O)(O)OP(=O)(O)O)[C@@H]1OP(=O)(O)O [1,5(PP)2-InsP4, bis-1,5-diphosphoinositol tetrakisphosphate]
fraction adopting the flipped conformation [2]: ~30%
in vitro binding affinity to XPR1 (XPR1): highest
